In paper PMC8533176, “1,5-Benzodiazepin-2(3H)-ones: In Vitro Evaluation as Antiparkinsonian Agents” (Antioxidants, 2021):

Assays:
[1] = tested on: Caspase-3 activity in SH-SY5Y cells; assay: Caspase-3 activity; format: cell-based, human; conditions: H2O2 500 µM 4 h; compound 24 h before
Protocol: Caspase-3 activity was measured using the Abcam fluorimetric kit (ab39383) according to the manufacturer’s instructions. Cells are washed with ice-cold PBS and lysed with lysis buffer. After compound and stressor treatments, SH-SY5Y cells were scraped off from p6 plates and collected in a 1.5 mL Eppendorf vial. The cell suspension was then centrifuged at 9000× g for 10 min at 4 °C. The supernatant was collected and stored at −80 °C for 24 h. Caspase 3 activity was measured as the ability of the cell extract to cleave the […] fluorochrome. The sample’s protein concentration was determined by the Bradford method. The reaction assay was performed by the addition of 50 μL of the cell lysate into the wells of a black 96-well culture plate followed by the addition of 50 μL of 2× reaction buffer containing DTT (10 mM) and caspase-3 substrate DEVD-AFC (final concentration 50 μM). Reagents were mixed by shaking the plate for 2 min at 300 rpm and then incubated at 37 °C for 2 h. Caspase-3 activity was measured as fluorescence intensity in a Varioskan microplate reader at λex = 400 nm and λem = 505 nm wavelengths. Relative fluorescence units (RFU)/mg of protein were calculated, and the fold increase in Caspase-3 activity was compared with that of the control.

[2] = tested on: SH-SY5Y cells; assay: Intracellular ROS levels (DCFH2-DA); format: cell-based, human; conditions: 400 µM H2O2 4 h; compounds 24 h before
Protocol: Intracellular ROS levels were determined using dichlorofluorescein diacetate (DCFH2-DA) according to Wang et al.. DCFH2-DA is cleaved by intracellular esterases and is oxidized by ROS to form the fluorescent compound DCF, which represents the ROS level. Therefore, 3 × 10^3 SH-SY5Y cells were seeded in 96-well culture black clear bottom plates and after 24 h were treated with the test compound for an additional 24 h. Then, they were exposed to H2O2 for 4 h. After the incubation period, cells were washed twice with Hanks buffer and loaded with 20 µM DCFH2-DA (in FBS-free culture medium) for 40 min in dark at 37 °C in a CO2 incubator. At the end of the dye incubation period, they were washed twice with Hanks buffer to remove the extracellular DCFH2-DA. Fluorescence was measured with a Varioskan microplate reader at λex = 485 nm and λem = 535 nm wavelengths. Results are expressed as a percentage of the fluorescent increase compared with that of the control. All the experiments were performed at least three times in quadruplicate for each compound concentration.

[3] = tested on: SH-SY5Y cells; assay: LDH release under H2O2; format: cell-based, human; conditions: H2O2 250 µM 24 h; compounds 24 h before; Figure 9
[4] = Kinetic solubility by UV spectrometry; format: physicochemical; conditions: PBS 50 mM, aqueous buffer, kinetic from dmso stock
Procedure, shortened: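 Compound from 20 mM DMSO stock was added to 10 mM PBS, shaken 2 h and filtered. The filtrate's UV absorbance (270–600 nm) was quantified against a 10–200 µM calibration curve in 50 mM PBS with 2% DMSO. Run in triplicate.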

[5] = tested on: SH-SY5Y cells; assay: Intracellular GSH recovery (monochlorobimane); format: cell-based, human; conditions: H2O2 250 µM 24 h; 5, 10 and 20 µM
Protocol: For intracellular GSH determination studies, the method of Senft et al. was used. In summary, 3 × 10^3 SH-SY5Y cells were seeded in 96-well culture black clear bottom plates and after 24 h were treated with the test compound for an additional 24 h. Then, they were exposed to H2O2 for 24 h. After the incubation period, cells were loaded with 30 µM mClB and incubated at 37 °C for 30 min in a CO2 incubator as described by Sebastia et al.. At the end of the mClB incubation period, fluorescence was measured with a Varioskan microplate reader at λex = 405 nm and λem = 475. Results are expressed as the percentage of the fluorescence increase compared with that of the control. Experiments were performed four times in triplicate.

[6] = Apoptosis and necrosis by flow cytometry (Annexin V-PE/7-AAD); conditions: human, SH-SY5Y cells
[7] = tested on: SH-SY5Y cells; assay: as above; conditions: 10 and 20 µM 24 h, then H2O2 1 mM 4 h
[8] = tested on: SH-SY5Y cells; assay: Mitochondrial superoxide levels (MitoSOX); format: cell-based, human; conditions: H2O2 250 µM; compounds 24 h before
Protocol: Mitochondrial superoxide levels were measured with MitoSOX red (3,8-phenanthridinediamine, 5-(60-triphenylphosphoniumhexyl)-5,6-dihydro-6-phenyl) from Molecular Probes (Thermo Fisher Scientific, 29851Willow Creek Road, Eugene, OR, USA). After SH-SY5Y cell treatment in 96-well culture black clear bottom plates, the medium was removed and cells were washed with PBS and afterward, MitoSOX red (final concentration of 5 µM) in 200 µL of PBS was added and incubated for 20 min at 37 °C. After incubation, the cells were washed with warm PBS buffer, and fluorescence was measured at 510 nm excitation/640 nm emission wavelengths in a Varioskan microplate reader (Thermo Fisher Scientific, Vantaa, Finland).

[9] = tested on: diffSH-SY5Y cells; assay: Neuroprotection in differentiated SH-SY5Y cells, MTT; format: cell-based, human; conditions: H2O2 500 µM 24 h; 0, 2, 5, 10, 20, and 40 µM 24 h before
[10] = Ferric reducing antioxidant power (FRAP) assay; format: biochemical; parameters: FRAP Assay Trolox Equivalents: unit not given here
Protocol: FRAP reagent was prepared by mixing 10 mL of 300 mM acetate buffer with 1 mL of 10 mM 2,4,6-tripyridyl-S-triazine (TPTZ) in HCl 40 mM and 1mL of FeCl3·6H2O 20 mM. […] Trolox was used as assay control.

- solubility [4]: < 100 µM
Compound: O=C1CC(c2ccccc2)=Nc2ccccc2N1 [Compound 18, 4-Phenyl-1H-1,5-benzodiazepin-2(3H)-one]
- Caspase-3 activity reduction [1]: reduced the levels of activated caspase 3
- Intracellular ROS level reduction [2]: ROS level reduction at all doses
- LDH leakage [3]: significant reduction at all the concentrations tested
- intracellular GSH recovery [5]: 18–20%
- viability at 24 h, 10 µM [6]: 26.6%
- viability at 24 h, 20 µM [6]: 28.1%
- Effect on apoptotic cell populations [7]: reduced the number of late apoptotic cells
- Reduction in mitochondrial superoxide levels [8]: reduce mitochondrial superoxide levels in a dose-dependent manner
- Neuroprotection, diffSH-SY5Y cell viability (MTT) [9]: dose-dependent neuroprotectant activity
- FRAP Assay Trolox Equivalents [10]: 0.89
- FRAP Assay Antioxidant Capacity (%) at 100 uM ([10]; compound at 100 uM): 45.7%
- FRAP Assay Antioxidant Capacity (%) at 200 uM ([10]; compound at 200 uM): 65.1%
